Source: PubChem BioAssay AID272 (DTP/NCI, 2004)
Where “and” joins values, the source holds several entries; their conditions need not be identical. Equal values may be shown once. Records with an inconclusive call do not appear.

Test system: Lewis lung carcinoma i.m., BDF1 mice, T/C %
Experiment: NCI In Vivo Anticancer Drug Screen. Data for tumor model Lewis Lung Carcinoma (intramuscular) in B6D2F1 (BDF1) mice
Summary of the method: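 Tumour-bearing mice were dosed with compound, and either their survival or their tumour size was measured. Results were expressed relative to vehicle-treated controls as T/C.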

COc1ccc(C(=O)/C(Br)=C/C(=O)O)cc1
T/C (endpoint: mean tumor weight, dose: 40.0 mg/kg/injection, schedule: Q01DX011 (ip), vehicle: saline, higher = larger tumour): 48 % of control

O=c1[nH]c(=O)n([C@H]2CCCO2)cc1F
T/C (endpoint: mean tumor weight (est.), dose: 39.0 mg/kg/injection, schedule: Q01DX011 (ip), vehicle: saline, higher = larger tumour): 112 % of control
T/C (endpoint: mean tumor weight (est.), dose: 65.0 mg/kg/injection, schedule: Q01DX011 (ip), vehicle: saline, higher = larger tumour): 40 % of control
T/C (endpoint: median survival time, dose: 25.0 mg/kg/injection, schedule: Q04DX004 (ip), vehicle: other, higher = longer survival): 112 % of control
T/C (endpoint: median survival time, dose: 39.0 mg/kg/injection, schedule: Q01DX011 (ip), vehicle: saline, higher = longer survival): 90 % of control
T/C (endpoint: median survival time, dose: 50.0 mg/kg/injection, schedule: Q04DX004 (ip), vehicle: other, higher = longer survival): 100 % of control
T/C (endpoint: median survival time, dose: 65.0 mg/kg/injection, schedule: Q01DX011 (ip), vehicle: saline, higher = longer survival): 119 % of control
T/C (endpoint: median survival time, dose: 100.0 mg/kg/injection, schedule: Q04DX004 (ip), vehicle: other, higher = longer survival): 100 % of control
T/C (endpoint: median survival time, dose: 200.0 mg/kg/injection, schedule: Q04DX004 (ip), vehicle: other, higher = longer survival): 103 % of control

Cc1c(N)nc(C(CC(N)=O)NCC(N)C(N)=O)nc1C(=O)NC(C(=O)NC(C)C(O)C(C)C(=O)NC(C(=O)NCCc1nc(-c2nc(C(=O)NCCC[S+](C)C)cs2)cs1)C(C)O)C(OC1OC(CO)C(O)C(O)C1OC1OC(CO)C(O)C(OC(N)=O)C1O)c1cnc[nH]1 (configuration not stated)
T/C (endpoint: median survival time, dose: 6.5 mg/kg/injection, schedule: Q01DX011 (ip), vehicle: saline, higher = longer survival): 152 % of control
T/C (endpoint: median survival time, dose: 10.8 mg/kg/injection, schedule: Q01DX011 (ip), vehicle: saline, higher = longer survival): 168 % of control
T/C (endpoint: median survival time, dose: 18.0 mg/kg/injection, schedule: Q01DX011 (ip), vehicle: saline, higher = longer survival): 166 % of control

O=C(CCCl)N1CCN(C(=O)CCCl)c2ccccc21
T/C (endpoint: mean tumor weight (est.), dose: 150.0 mg/kg/injection, schedule: Q01DX011 (ip), vehicle: saline with Tween-80, higher = larger tumour): 83 % of control
T/C (endpoint: mean tumor weight (est.), dose: 300.0 mg/kg/injection, schedule: Q01DX011 (ip), vehicle: saline with Tween-80, higher = larger tumour): 82 % of control
T/C (endpoint: median survival time, dose: 150.0 mg/kg/injection, schedule: Q01DX011 (ip), vehicle: saline with Tween-80, higher = longer survival): 108 % of control
T/C (endpoint: median survival time, dose: 300.0 mg/kg/injection, schedule: Q01DX011 (ip), vehicle: saline with Tween-80, higher = longer survival): 93 % of control

CN(N=O)C(=O)N[C@@H](C=O)[C@@H](O)[C@H](O)[C@H](O)CO
T/C (endpoint: mean tumor weight, dose: 12.5 mg/kg/injection, schedule: Q01DX011 (ip), vehicle: saline, higher = larger tumour): 66 % of control
T/C (endpoint: mean tumor weight, dose: 25.0 mg/kg/injection, schedule: Q01DX011 (ip), vehicle: saline, higher = larger tumour): 95 % of control
T/C (endpoint: mean tumor weight, dose: 100.0 mg/kg/injection, schedule: Q01DX011 (ip), vehicle: saline, higher = larger tumour): 61 % of control
T/C (endpoint: mean tumor weight, dose: 200.0 mg/kg/injection, schedule: Q01DX011 (ip), vehicle: saline, higher = larger tumour): 74 % of control
T/C (endpoint: median survival time, dose: 12.5 mg/kg/injection, schedule: Q01DX011 (ip), vehicle: saline, higher = longer survival): 109 % of control
T/C (endpoint: median survival time, dose: 25.0 mg/kg/injection, schedule: Q01DX011 (ip), vehicle: saline, higher = longer survival): 95 % of control
T/C (endpoint: median survival time, dose: 50.0 mg/kg/injection, schedule: Q01DX011 (ip), vehicle: saline, higher = longer survival): 90 % of control and 100 % of control
T/C (endpoint: median survival time, dose: 100.0 mg/kg/injection, schedule: Q01DX011 (ip), vehicle: saline, higher = longer survival): 92 % of control
T/C (endpoint: median survival time, dose: 200.0 mg/kg/injection, schedule: Q01DX011 (ip), vehicle: saline, higher = longer survival): 121 % of control

CO[C@H]1/C=C/O[C@@]2(C)Oc3c(C)c(O)c4c(O)c(c(/C=N/N5C(C)CN(Cc6ccccc6)CC5C)c(O)c4c3C2=O)NC(=O)/C(C)=C\C=C\[C@H](C)[C@H](O)[C@@H](C)[C@@H](O)[C@@H](C)[C@H](OC(C)=O)[C@@H]1C (some centres not stated)
T/C (endpoint: median survival time, dose: 25.0 mg/kg/injection, schedule: Q02DX009 (ip), vehicle: other, higher = longer survival): 117 % of control
T/C (endpoint: median survival time, dose: 50.0 mg/kg/injection, schedule: Q02DX009 (ip), vehicle: Klucel (hydroxypropylcellulose) (HPC), higher = longer survival): 114 % of control
T/C (endpoint: median survival time, dose: 50.0 mg/kg/injection, schedule: Q02DX009 (ip), vehicle: other, higher = longer survival): 107 % of control
T/C (endpoint: median survival time, dose: 200.0 mg/kg/injection, schedule: Q02DX009 (ip), vehicle: Klucel (hydroxypropylcellulose) (HPC), higher = longer survival): 98 % of control
T/C (endpoint: median survival time, dose: 200.0 mg/kg/injection, schedule: Q02DX009 (ip), vehicle: other, higher = longer survival): 87 % of control
T/C (endpoint: median survival time, dose: 400.0 mg/kg/injection, schedule: Q02DX009 (ip), vehicle: Klucel (hydroxypropylcellulose) (HPC), higher = longer survival): 98 % of control

CC(=O)OC1C(=O)C(O)C(C)OC1O[C@@H]1C[C@@]2(C)[C@@H]3CC=C4[C@@H](C[C@H](O)C(=O)C4(C)C)[C@]3(C)C(=O)C[C@]2(C)[C@H]1[C@@](C)(O)C(=O)/C=C/C(C)(C)O (some centres not stated)
T/C (endpoint: mean tumor weight, dose: 0.5 mg/kg/injection, schedule: Q01DX011 (ip), vehicle: saline, higher = larger tumour): 41 % of control
T/C (endpoint: mean tumor weight, dose: 1.0 mg/kg/injection, schedule: Q01DX011 (ip), vehicle: saline, higher = larger tumour): 32 % of control
T/C (endpoint: mean tumor weight, dose: 2.0 mg/kg/injection, schedule: Q01DX011 (ip), vehicle: saline, higher = larger tumour): 41 % of control
T/C (endpoint: median survival time, dose: 0.5 mg/kg/injection, schedule: Q01DX011 (ip), vehicle: saline, higher = longer survival): 113 % of control
T/C (endpoint: median survival time, dose: 1.0 mg/kg/injection, schedule: Q01DX011 (ip), vehicle: saline, higher = longer survival): 89 % of control
T/C (endpoint: median survival time, dose: 2.0 mg/kg/injection, schedule: Q01DX011 (ip), vehicle: saline, higher = longer survival): 91 % of control
